Columns and labels:
Type in all cases: cell-based
[1] = test system: Botryosphaeria berengeriana
Cochliobolus miyabeanus = assay: Antifungal activity test, mycelium growth inhibition on PDA medium; details: Bipolaris oryzae, read-out: median effective concentration (EC50), mycelium growth inhibitory activity
Botrytis cinerea = assay: microbe, parasite or virus in culture; details: read-out: median effective concentration (EC50), mycelium growth inhibitory activity
Sclerotinia sclerotirum = assay: microbe, parasite or virus in culture; details: read-out: median effective concentration (EC50), mycelium growth inhibitory activity
Fusarium graminearum = assay: microbe, parasite or virus in culture; details: read-out: median effective concentration (EC50), mycelium growth inhibitory activity

SMILES	median effective concentration (EC50), spore germination inhibitory activity [1]	EC50 (Cochliobolus miyabeanus)	EC50 (Botrytis cinerea)	EC50 (Sclerotinia sclerotirum)	EC50 (Fusarium graminearum)
O=C(NCc1ccccn1)C1(c2ccc(C(F)(F)F)cc2)CC1(Cl)Cl (centres unmarked) [I-A-36]	≤ 200 ppm	–	–	–	–
O=C1c2ccccc2COc2ccc(C3(C(=O)NCc4ccccn4)CC3(Cl)Cl)cc21 (centres unmarked) [I-A-78]	–	≤ 200 µg/mL	≤ 200 µg/mL	≤ 200 µg/mL	–
CC(C)(C)c1ccc(C2(C(=O)NCc3ccccn3)CC2(Cl)Cl)cc1 (centres unmarked) [I-A-101]	–	≤ 200 µg/mL	≤ 200 µg/mL	≤ 200 µg/mL	≤ 200 µg/mL
O=C(NCc1ccccn1)C1(c2ccc(-c3noc(C(F)(F)F)n3)cc2)CC1(Cl)Cl (centres unmarked) [I-A-132]	–	≤ 200 µg/mL	≤ 200 µg/mL	≤ 200 µg/mL	≤ 200 µg/mL
O=C(NCc1ccccn1)C1(c2ccc(N=C(c3ccccc3)c3ccccc3)cc2)CC1(Cl)Cl (centres unmarked) [I-A-159]	–	≤ 200 µg/mL	≤ 200 µg/mL	≤ 200 µg/mL	–
Cc1ccc(CNC(=O)C2(c3ccc(I)cc3)CC2(Cl)Cl)nc1 (centres unmarked) [I-A-257]	–	≤ 200 µg/mL	≤ 200 µg/mL	≤ 200 µg/mL	≤ 200 µg/mL
Cc1ccc(CNC(=O)C2(c3ccc(-c4ccccc4F)cc3)CC2(Cl)Cl)nc1 (centres unmarked) [I-A-261]	–	≤ 200 µg/mL	≤ 200 µg/mL	≤ 200 µg/mL	≤ 200 µg/mL
Cc1ccc(CNC(=O)C2(c3ccc(C4=CCCC4)cc3)CC2(Cl)Cl)nc1 (centres unmarked) [I-A-267]	–	≤ 200 µg/mL	≤ 200 µg/mL	≤ 200 µg/mL	≤ 200 µg/mL
Cc1ccc(CNC(=O)C2(c3ccc(C4=CCCCC4)cc3)CC2(Cl)Cl)nc1 (centres unmarked) [I-A-268]	–	≤ 200 µg/mL	≤ 200 µg/mL	≤ 200 µg/mL	≤ 200 µg/mL
Cc1ccc(CNC(=O)C2(c3ccc(S(=O)(=O)c4ccccc4)cc3)CC2(Cl)Cl)[n+]([O-])c1 (centres unmarked) [I-A-280]	–	≤ 200 µg/mL	–	≤ 200 µg/mL	≤ 200 µg/mL
Cc1ccc(CNC(=O)C2(c3ccc(Oc4nc5ccccc5s4)cc3)CC2(Cl)Cl)nc1 (centres unmarked) [I-A-288]	–	≤ 200 µg/mL	≤ 200 µg/mL	≤ 200 µg/mL	≤ 200 µg/mL
CC(C)(C)c1ccc(C2(C(=O)N3CCc4cccnc4C3)CC2(Cl)Cl)cc1 (centres unmarked) [I-A-371]	–	≤ 200 µg/mL	–	≤ 200 µg/mL	≤ 200 µg/mL

From patent US20260206763A1, “AMIDE COMPOUNDS OR SALTS THEREOF, BACTERICIDAL AGENTS FOR AGRICULTURE AND HORTICULTURE CONTAINING SAID COMPOUNDS, AND METHOD OF USING SAME” (NIHON NOHYAKU CO., LTD., priority 2022, published 2026)
